Test results published in PubChem BioAssay AID330 (DTP/NCI, 2004).
Where “and” joins values, the source holds several entries; their conditions need not be identical. Equal entries are not always repeated. Inconclusive results and toxic doses are left out. Rule for the calls: active = survival T/C of 150% or more; inactive = T/C below 125% in these data.

Test system: P388 leukemia ip, CD2F1 mice, survival T/C
Assay: NCI In Vivo Anticancer Drug Screen. Data for tumor model P388 Leukemia (intraperitoneal) in CD2F1 (CDF1) mice
Conditions: endpoint: median survival time, higher = longer survival
Outline: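 Mice carrying the transplanted tumor received test compound or vehicle. Survival was recorded in each group, and the value is the treated-group measurement divided by that of the vehicle-treated control group.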

[1] = dose: 50.0 mg/kg/injection, schedule: Q01DX005 (ip), vehicle: saline with Tween-80
[2] = dose: 100.0 mg/kg/injection, schedule: Q01DX005 (ip), vehicle: saline with Tween-80
[3] = dose: 200.0 mg/kg/injection, schedule: Q01DX005 (ip), vehicle: saline with Tween-80
[4] = dose: 50.0 mg/kg/injection, schedule: Q01DX009 (ip), vehicle: Klucel (hydroxypropylcellulose) (HPC)
[5] = dose: 100.0 mg/kg/injection, schedule: Q01DX009 (ip), vehicle: Klucel (hydroxypropylcellulose) (HPC)
[6] = dose: 200.0 mg/kg/injection, schedule: Q01DX009 (ip), vehicle: Klucel (hydroxypropylcellulose) (HPC)
[7] = dose: 50.0 mg/kg/injection, schedule: Q01DX009 (ip), vehicle: saline
[8] = dose: 100.0 mg/kg/injection, schedule: Q01DX009 (ip), vehicle: saline
[9] = dose: 50.0 mg/kg/injection, schedule: Q04DX003 (ip), vehicle: saline with Tween-80
[10] = dose: 200.0 mg/kg/injection, schedule: Q04DX003 (ip), vehicle: saline with Tween-80
[11] = dose: 50.0 mg/kg/injection, schedule: Q01DX009 (ip), vehicle: saline with Tween-80
[12] = dose: 100.0 mg/kg/injection, schedule: Q01DX009 (ip), vehicle: saline with Tween-80
[13] = dose: 200.0 mg/kg/injection, schedule: Q01DX009 (ip), vehicle: saline with Tween-80
[14] = dose: 400.0 mg/kg/injection, schedule: Q01DX009 (ip), vehicle: saline with Tween-80
[15] = dose: 100.0 mg/kg/injection, schedule: Q01DX001 (ip), vehicle: Klucel (hydroxypropylcellulose) (HPC)
[16] = dose: 200.0 mg/kg/injection, schedule: Q01DX001 (ip), vehicle: Klucel (hydroxypropylcellulose) (HPC)

Measured: T/C

O=C1c2ccccc2CN(C(=Nc2ccccc2)Nc2ccccc2)c2ccccc21
inactive: [1] 90 % of control | [2] 91 % of control | [3] 102 % of control

COc1cc(/C=C2\C(=O)C3CCN2CC3)cc(OC)c1OC
inactive: [4] 96 % of control | [5] 93 % of control | [6] 114 % of control

C[n+]1ccc(/C=C/c2ccccc2O)cc1
inactive: dose: 12.5 mg/kg/injection, schedule: Q01DX009 (ip), vehicle: saline 89 % of control | dose: 25.0 mg/kg/injection, schedule: Q01DX009 (ip), vehicle: saline 94 % of control | [7] 106 % of control | [8] 117 % of control

CCCCOc1cc(C(=O)O)ccc1[N+](=O)[O-]
inactive: [9] 100 % of control | [10] 104 % of control

CC(C)(C)C1CCC(C(=O)O)CC1 (stereo not given)
inactive: [11] 91 % of control | [9] 100 % of control | [12] 100 % of control and 91 % of control | dose: 100.0 mg/kg/injection, schedule: Q04DX003 (ip), vehicle: saline with Tween-80 95 % of control | [13] 91 % of control and 100 % of control | [10] 109 % of control and 95 % of control | [14] 91 % of control | dose: 400.0 mg/kg/injection, schedule: Q04DX003 (ip), vehicle: saline with Tween-80 100 % of control

C/C(=N/N=C(N)N)c1cn[nH]c1C
inactive: dose: 60.0 mg/kg/injection, schedule: Q01DX005 (ip), vehicle: Klucel (hydroxypropylcellulose) (HPC) 107 % of control | dose: 120.0 mg/kg/injection, schedule: Q01DX005 (ip), vehicle: Klucel (hydroxypropylcellulose) (HPC) 100 % of control

CCCCCCCCCCCc1n(Cc2ccccc2)c2ccccc2[n+]1C
inactive: dose: 0.25 mg/kg/injection, schedule: Q01DX009 (ip), vehicle: saline sonified 104 % of control | dose: 0.5 mg/kg/injection, schedule: Q01DX009 (ip), vehicle: saline sonified 109 % of control

c1ccc2sc(SSN3CCOCC3)nc2c1
inactive: dose: 50.0 mg/kg/injection, schedule: Q01DX009 (ip), vehicle: suspension in saline 97 % of control | dose: 100.0 mg/kg/injection, schedule: Q01DX009 (ip), vehicle: suspension in saline 106 % of control | dose: 200.0 mg/kg/injection, schedule: Q01DX009 (ip), vehicle: suspension in saline 95 % of control | dose: 400.0 mg/kg/injection, schedule: Q01DX009 (ip), vehicle: suspension in saline 90 % of control

COc1ccc(CC(=O)Nc2ccc(OC)c(OC)c2)cc1OC
inactive: dose: 25.0 mg/kg/injection, schedule: Q01DX009 (ip), vehicle: other 92 % of control | dose: 50.0 mg/kg/injection, schedule: Q01DX009 (ip), vehicle: other 91 % of control | dose: 100.0 mg/kg/injection, schedule: Q01DX009 (ip), vehicle: other 95 % of control | dose: 200.0 mg/kg/injection, schedule: Q01DX009 (ip), vehicle: other 87 % of control | dose: 400.0 mg/kg/injection, schedule: Q01DX009 (ip), vehicle: other 92 % of control

CCCC(O)C(C(=O)OCC)C(=O)OCC (stereo not given)
inactive: [7] 95 % of control | [8] 95 % of control | dose: 200.0 mg/kg/injection, schedule: Q01DX009 (ip), vehicle: saline 94 % of control

CC(=O)/C=C/c1ccccc1
inactive: dose: 25.0 mg/kg/injection, schedule: Q01DX009 (ip), vehicle: Klucel (hydroxypropylcellulose) (HPC) 103 % of control | [4] 101 % of control | [5] 101 % of control | [12] 108 % of control | [6] 103 % of control | [13] 109 % of control | [14] 119 % of control | dose: 600.0 mg/kg/injection, schedule: Q01DX009 (ip), vehicle: saline with Tween-80 117 % of control

C(=C\c1ccccc1)/CN1CCN(C(c2ccccc2)c2ccccc2)CC1
inactive: [4] 97 % of control | [5] 94 % of control | [6] 90 % of control

O=C(O)/C=C/C(=O)N1Cc2cc3ccccc3nc2C1
inactive: dose: 1.56 mg/kg/injection, schedule: Q01DX009 (ip), vehicle: saline with Tween-80 100 % of control and 101 % of control and 104 % of control | dose: 3.13 mg/kg/injection, schedule: Q01DX009 (ip), vehicle: saline with Tween-80 99 % of control and 103 % of control and 117 % of control | dose: 6.25 mg/kg/injection, schedule: Q01DX009 (ip), vehicle: saline with Tween-80 101 % of control and 94 % of control | dose: 8.0 mg/kg/injection, schedule: Q01DX009 (ip), vehicle: saline with Tween-80 91 % of control | dose: 12.5 mg/kg/injection, schedule: Q01DX009 (ip), vehicle: saline with Tween-80 98 % of control and 99 % of control and 107 % of control | dose: 16.0 mg/kg/injection, schedule: Q01DX009 (ip), vehicle: saline with Tween-80 94 % of control | dose: 32.0 mg/kg/injection, schedule: Q01DX009 (ip), vehicle: saline with Tween-80 99 % of control | dose: 64.0 mg/kg/injection, schedule: Q01DX009 (ip), vehicle: saline with Tween-80 94 % of control

N#CCCn1nc(SC2CCCCC2)c(=O)[nH]c1=O
inactive: dose: 25.0 mg/kg/injection, schedule: Q01DX005 (ip), vehicle: water 108 % of control | dose: 50.0 mg/kg/injection, schedule: Q01DX005 (ip), vehicle: water 103 % of control | dose: 100.0 mg/kg/injection, schedule: Q01DX005 (ip), vehicle: water 98 % of control | dose: 200.0 mg/kg/injection, schedule: Q01DX005 (ip), vehicle: water 108 % of control

COC1/C=C/OC2(C)Oc3c(C)c(O)c4c(O)c(c(/C=N/n5c(=O)[nH]c6ccccc6c5=O)c(O)c4c3C2=O)NC(=O)/C(C)=C\C=C\C(C)C(O)C(C)C(O)C(C)C(OC(C)=O)C1C (stereo not given)
inactive: [11] 107 % of control | [12] 108 % of control | [13] 106 % of control

CC(C)[CH2][Ge]([Cl])([Cl])[Cl]
inactive: dose: 0.78 mg/kg/injection, schedule: Q01DX009 (ip), vehicle: saline 103 % of control | dose: 1.56 mg/kg/injection, schedule: Q01DX009 (ip), vehicle: saline 106 % of control | dose: 3.12 mg/kg/injection, schedule: Q01DX009 (ip), vehicle: saline 94 % of control | dose: 6.25 mg/kg/injection, schedule: Q01DX009 (ip), vehicle: saline 119 % of control

COCC1(C)CCCC2(C)C3=C(CC=C(OC)C3)CCC12 (stereo not given)
inactive: [15] 102 % of control | [16] 94 % of control | dose: 400.0 mg/kg/injection, schedule: Q01DX001 (ip), vehicle: Klucel (hydroxypropylcellulose) (HPC) 90 % of control

CCOC(=O)C1=CNN=CC12C(=O)NC(=Nc1ccccc1)N2c1ccccc1 (stereo not given)
inactive: dose: 100.0 mg/kg/injection, schedule: Q04DX002 (ip), vehicle: saline with Tween-80 93 % of control | dose: 200.0 mg/kg/injection, schedule: Q04DX002 (ip), vehicle: saline with Tween-80 104 % of control | dose: 400.0 mg/kg/injection, schedule: Q04DX002 (ip), vehicle: saline with Tween-80 95 % of control

Nc1cc2c3cccnc3ccc2c2ncccc12
inactive: dose: 100.0 mg/kg/injection, schedule: Q01DX001 (ip), vehicle: saline with Tween-80 94 % of control | dose: 200.0 mg/kg/injection, schedule: Q01DX001 (ip), vehicle: saline with Tween-80 89 % of control | dose: 400.0 mg/kg/injection, schedule: Q01DX001 (ip), vehicle: saline with Tween-80 95 % of control

CCOC(=O)c1n[nH]c(C)c1C/C(=N/O)c1ccccc1
inactive: [1] 103 % of control | [2] 92 % of control | [3] 92 % of control

Cc1ccc(C2(C(=O)O)CC2)cc1
inactive: [12] 100 % of control | [13] 100 % of control | [14] 90 % of control

O=[N+]([O-])c1ccc(CN2CCN(c3nccs3)CC2)cc1
inactive: [4] 101 % of control | [5] 105 % of control | [6] 105 % of control

CCC1=C(NCc2ccccc2)COC1=O
inactive: dose: 50.0 mg/kg/injection, schedule: Q01DX001 (ip), vehicle: Klucel (hydroxypropylcellulose) (HPC) 100 % of control | [15] 101 % of control | [16] 100 % of control

CCC1(c2ccccc2)C(=O)c2ccccc2C1=O
inactive: dose: 100.0 mg/kg/injection, schedule: Q04DX002 (ip), vehicle: saline 101 % of control | dose: 200.0 mg/kg/injection, schedule: Q04DX002 (ip), vehicle: saline 102 % of control | dose: 400.0 mg/kg/injection, schedule: Q04DX002 (ip), vehicle: saline 105 % of control
